According to patent publication US12214012B2, “Combined preparations for the treatment of cancer” (IMMUTEP S.A.S., priority 2013, dated 2025):
Structures can show the parent of a compound that is named as a salt.

B1: IMP321: recombinant soluble human LAG-3Ig fusion protein, 200-kDa dimer: extracellular domain of hLAG-3 fused to human IgG1 Fc (protein)
chain: LQPGAEVPVVWAQEGAPAQLPCSPTIPLQDLSLLRRAGVTWQHQPDSGPPAAAPGHPLAPGPHPAAPSSWGPRPRRYTVLSVGPGGLRSGRLPLQPRVQLDERGRQRGDFSLWLRPARRADAGEYRAAVHLRDRALSCRLRLRLGQASMTASPPGSLRASDWVILNCSFSRPDRPASVHWFRNRGQGRVPVRESPHHHLAESFLFLPQVSPMDSGPWGCILTYRDGFNVSIMYNLTVLGLEPPTPLTVYAGAGSRVGLPCRLPAGVGTRSFLTAKWTPPGGGPDLLVTGDNGDFTLRLEDVSQAQAGTYTCHIHLQEQQLNATVTLAIITVTPKSFGSPGSLGKLLCEVTPVSGQERFVWSSLDTPSQRSFSGPWLEAQEAQLLSQPWQCQLYQGERLLGAAVYFTELSSPG
modifications: left off: small tags and cut ends; a dimerising Fc or GST
notes: recombinant soluble human LAG-3Ig fusion protein, 200-kDa dimer: extracellular domain of hLAG-3 fused to human IgG1 Fc

Columns and labels:
[1] = test system: Mouse colon 38 (C38) tumor fragments; test: C38 colon adenocarcinoma tumor model (Example 4); conditions: C38 fragments s.c. in C57BL/6 mice; oxaliplatin 5 mg/kg IV Q7Dx4; IMP321 20 μg SC Q7Dx4, day after oxaliplatin; FIG. 4A
Procedure: The effect of combined treatment with the LAG-3 derivative IMP321 (also referred to as hLAG-3Ig) and oxaliplatin in the C38 colon adenocarcinoma tumor model was evaluated. In this model, tumor fragments are surgically implanted subcutaneously.
Mouse colon 38 (C38) tumor fragments were obtained frozen from the Division of Cancer Treatment, Tumor Repository, NCI (Frederick, MD, USA). The C38 fragments were stored frozen in DMSO/SVF/RPMI 1640 medium (10/10/80) in liquid nitrogen until use. The fragments were thawed at 37° C. for 5 min, rinsed twice in RPMI 1640 medium before subcutaneous (SC) implantation in mice. The C38 tumors were serially transplanted in C57Bl/6 mice.
Small C38 tumor fragments (20-30 mg) were subcutaneously implanted in the right flank of 12 C57BL/6 mice. When tumor sizes reached 500-1000 mm^3, tumors were surgically excised and small C38 tumor fragments (20-30 mg) were subcutaneously implanted in the right flank of recipient C57BL/6 mice.
Treatment started when the tumors reached a mean volume of 200-300 mm^3. […]

lymphoma cell line EL4 [2] = test: Murine syngeneic skin tumour model, EL4, carboplatin and oxaliplatin (Example 3); type: in vivo; conditions: EL4 s.c. in C57Bl/6 mice; IMP321 50 μg s.c. D7-D25; Carboplatin 16 mg/kg i.p. D6, D10, D13, D17; Oxaliplatin 3 mg/kg i.p. D6, D10; FIG. 3A/3B
Procedure: (§1) A murine syngeneic skin tumour model was established using the lymphoma cell line EL4.
The minimum tumorigenic dose (MTD) of tumour cells (5×10^5 cells) was implanted by s.c. injection in the right flank of C57Bl/6 mice (5 weeks old) at Day 0. The mice were injected with phosphate buffered saline (PBS) (Group 1 mice), IMP321 (Group 2 mice), IMP321 and Carboplatin (Group 3 mice), Carboplatin alone (Group 4 mice), IMP321 and Oxaliplatin (Group 5 mice), or Oxaliplatin alone (Group 6 mice) according to the following schedule: • Group 1 (10 mice): negative control: PBS s.c. injection at D7, D11, D14, D18, D21 and D25; • Group 2 (10 mice): IMP321 s.c. injection (50 μg, 1.9 mg/m) at D7, D11, D14, D18, D21 and D25; • Group 3 (9 mice): IMP321 s.c. injection (50 μg, 1.9 mg/ml) at D7, D11, D14, D18, D21 and D25, plus Carboplatin i.p. injection (288 μg, 16 mg/kg) at D6, D10, D13 and D17; • Group 4 (10 mice): Carboplatin i.p. injection (288 μg, 16 mg/kg) at D6, D10, D13 and D17; • Group 5 (10 mice): IMP321 s.c. injection (50 μg, 1.9 mg/m) at D7, D11, D14, D18, D21 and D25, plus Oxaliplatin i.p. injection (54 μg, 3 mg/kg) at D6 and D10; • Group 6 (10 mice): Oxaliplatin i.p. injection (54 μg, 3 mg/kg) at D6 and D10.
Tumour growth was monitored twice a week by measuring two perpendicular tumor diameters using calipers. […] Tumour size means the cross-sectional area in mm^2.

lymphoma cell line EL4 [3] = test: Murine syngeneic skin tumour model, EL4 (Example 2); type: in vivo; conditions: EL4 s.c. in C57Bl/6 mice; IMP321 50 μg s.c. D7-D24; Carboplatin 16 mg/kg i.p. D6, D10, D13, D17; FIG. 2
Procedure: as §1
The minimum tumorigenic dose (MTD) of tumour cells (5×10^5 cells) was implanted by s.c. injection in the right flank of C57Bl/6 mice (5 weeks old) at Day 0. The mice were injected with phosphate buffered saline (PBS) (Group 1 mice), IMP321 (Group 2 mice), IMP321 and Carboplatin (Group 3 mice), or Carboplatin alone (Group 4 mice) according to the following schedule: • Group 1 (8 mice): negative control: PBS s.c. injection at D7, D11, D14, D19, D21 and D24; • Group 2 (8 mice): IMP321 s.c. injection (50 μg, 3.96 mg/ml) at D7, D11, D14, D19, D21 and D24; • Group 3 (8 mice): IMP321 s.c. injection (50 μg, 3.96 mg/m) at D7, D11, D14, D19, D21 and D24, plus Carboplatin i.p. injection (288 μg, 16 mg/kg) at D6, D10, D13 and D17; • Group 4 (8 mice): Carboplatin i.p. injection (288 μg, 16 mg/kg) at D6, D10, D13 and D17.
Tumour growth was monitored twice a week by measuring two perpendicular tumor diameters using calipers. Tumour size means the cross-sectional area in mm^2.

[4] = test system: colorectal adenocarcinoma cell line CT26; test: Murine syngeneic skin tumour model, CT26 (Example 1); type: in vivo; conditions: CT26 s.c. in BALB/c mice; IMP321 50 μg s.c. D11-D28; Topotecan 2.5 mg/kg i.p. D10, D13, D17; FIG. 1
Procedure: A murine syngeneic skin tumour model was established using the colorectal adenocarcinoma cell line CT26.
One quarter of the minimum tumorigenic dose (MTD) of tumour cells (0.5×10^5 cells) was implanted by subcutaneous (s.c.) injection in the right flank of four groups of BALB/c mice (5 weeks old) at Day 0. The mice were injected with phosphate buffered saline (PBS) (Group 1 mice), the LAG-3 derivative IMP321 (Group 2 mice), IMP321 and Topotecan (Group 3 mice), or Topotecan alone (Group 4 mice) according to the following schedule: • Group 1 (8 mice): negative control: PBS s.c. injection at D11, D14, D18, D21, D25 and D28; • Group 2 (7 mice): IMP321 s.c. injection (50 μg, 1.9 mg/ml) at D11, D14, D18, D21, D25 and D28; • Group 3 (8 mice): IMP321 s.c. injection (50 μg, 1.9 mg/ml) at D11, D14, D18, D21, D25 and D28, plus Topotecan i.p. injection (45 μg, 2.5 mg/kg) at D10, D13 and D17; • Group 4 (8 mice): Topotecan i.p. injection (45 μg, 2.5 mg/kg) at D10, D13 and D17.
Tumour growth was monitored twice a week by measuring two perpendicular tumour diameters using calipers. Tumour size means the cross-sectional area in mm^2.

| Molecule | effect on delaying tumor growth [1] | effect on tumour growth (tumour size, cross-sectional area) (lymphoma cell line EL4 [2]) | effect on tumour growth (tumour size, cross-sectional area) (lymphoma cell line EL4 [3]) | effect on tumour growth (tumour size, cross-sectional area) [4] |
| --- | --- | --- | --- | --- |
| O=C1[O][Pt]2([NH][C@@H]3CCCC[C@H]3[NH]2)[O]C1=O [Oxaliplatin, [(1R,2R)-cyclohexane-1,2-diamine](ethanedioato-O,O′)platinum(II)] | a slight effect | had an effect |  |  |
| [NH2][Pt]1([NH2])[O]C(=O)C2(CCC2)C(=O)[O]1 [carboplatin, cis-diammine(cyclobutane-1,1-dicarboxylate-O,O′)platinum(I)] |  | some effect | very little effect, if any |  |
| CC[C@@]1(O)C(=O)OCc2c1cc1n(c2=O)Cc2cc3c(CN(C)C)c(O)ccc3nc2-1 [topotecan, (S)-10-[(dimethylamino)methy]-4-ethyl-4,9-dihydroxy-1H-pyrano[3′,4′:6,7]indolizino[1,2-b] quinoline-3,14(4H,12H)-dione monohydrochloride] |  |  |  | some effect on reducing tumor growth |
| B1 | no effect on delaying tumor growth | little, if any effect | no effect on tumour growth | no effect on tumour growth |
